Data as given in patent US6303638A, “Substituted pyridines as modulators of the mammalian neuronal nicotinic acetylcholine receptor” (The Regents of the University of California, priority 1999, dated 2001).
Where “and” joins values, the source holds several entries; their conditions need not be identical. Equal entries are not always repeated.

test system: insect versus the mammalian nAChR; assay: not given; conditions: Kagabu et al. (1997); Chao et al. (1997); cited from earlier work

SMILES | selectivity insect versus mammalian nAChR
O=[N+]([O-])NC1=NCCN1Cc1ccc(Cl)nc1 [imidacloprid] | acts selectively at the insect versus the mammalian nAChR
N=C1NCCN1Cc1ccc(Cl)nc1 [1-[(6-chloro-3-pyridinyl)methyl]-2-imidazolidine] | selective for the mammalian versus the insect nAChR

test system: humans; assay: not given; conditions: administered into the human blood stream, even in relatively small amounts; cited from earlier work

SMILES | central and peripheral effects of nicotine
CN1CCC[C@H]1c1cccnc1 [nicotine] | fever, increased heart rate, trembling, nausea, increased blood pressure and convulsions

biological target: T1, α4β2 nAChR (Rattus norvegicus, UniProt P09483+P12390); assay: Inhibition of [3H](-)-nicotine binding to recombinant α4β2 nAChR; conditions: not given
T1 construct: made in house; host or cells: Sf9 insect cells infected with each recombinant baculovirus stock; membrane preparation
T1 sequence (P09483 31-630): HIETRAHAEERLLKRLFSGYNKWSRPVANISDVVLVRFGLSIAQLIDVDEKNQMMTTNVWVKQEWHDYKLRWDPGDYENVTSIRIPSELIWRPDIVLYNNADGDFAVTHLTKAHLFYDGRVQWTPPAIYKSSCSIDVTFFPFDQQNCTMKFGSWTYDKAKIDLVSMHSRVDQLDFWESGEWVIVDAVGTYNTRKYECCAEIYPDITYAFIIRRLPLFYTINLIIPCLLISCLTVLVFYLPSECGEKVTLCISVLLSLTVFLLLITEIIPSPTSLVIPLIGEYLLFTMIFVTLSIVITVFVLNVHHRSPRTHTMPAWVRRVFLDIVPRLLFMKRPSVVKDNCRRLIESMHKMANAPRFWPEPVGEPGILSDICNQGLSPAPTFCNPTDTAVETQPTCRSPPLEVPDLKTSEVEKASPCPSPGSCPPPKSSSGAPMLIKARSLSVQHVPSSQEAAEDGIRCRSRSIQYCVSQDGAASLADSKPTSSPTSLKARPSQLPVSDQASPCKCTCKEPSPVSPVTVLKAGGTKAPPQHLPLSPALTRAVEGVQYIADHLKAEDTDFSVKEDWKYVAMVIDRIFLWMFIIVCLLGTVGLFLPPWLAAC
T1 sequence (P12390 25-500): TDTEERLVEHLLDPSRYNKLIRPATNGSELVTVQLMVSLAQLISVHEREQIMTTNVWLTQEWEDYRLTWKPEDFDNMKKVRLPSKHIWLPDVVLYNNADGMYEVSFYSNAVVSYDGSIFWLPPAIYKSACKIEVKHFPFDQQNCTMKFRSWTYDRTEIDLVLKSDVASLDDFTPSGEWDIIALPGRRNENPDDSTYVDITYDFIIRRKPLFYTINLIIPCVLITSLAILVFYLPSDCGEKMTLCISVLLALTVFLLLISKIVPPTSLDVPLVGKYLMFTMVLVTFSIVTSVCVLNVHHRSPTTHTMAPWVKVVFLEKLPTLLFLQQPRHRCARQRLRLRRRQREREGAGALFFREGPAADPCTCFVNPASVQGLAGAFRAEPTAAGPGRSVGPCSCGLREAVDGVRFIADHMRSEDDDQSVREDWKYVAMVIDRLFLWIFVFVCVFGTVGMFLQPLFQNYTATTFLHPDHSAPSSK
Procedure: Representative compounds of the invention were investigated by way of the experimental protocol described below.
Production of recombinant α4β2 nAChR:
Recombinant baculovirus stocks containing inserts for the rat α4 and β2 nAChR subunits were independently amplified as described by Wang et al. (1996) J. Neurosci. Res. 44:350-354. Production of the α4β2 nAChR was achieved by infection of Sf9 insect cells with each recombinant viral stock. Cells were harvested 48-72 h post infection by centrifugation for 10 min at 100 g, then washed in a phosphate-bufferedsaline, and homogenized in a small volume of buffer (20 mM Tris-HCl, pH 7.4, 118 mM NaCl, […], 2.5 mM CaCl2, 1.2 mM MgSO4, and 1.0 mM EDTA), followed by centrifugation for 10 min at 300 g. The final step was centrifugation of the supernatant at 37000 g. The membrane pellet was resuspended in buffer and adjusted to 20 mg of total protein per 100 mL. These nAChR preparations were used immediately for binding assays or stored as single experiment aliquots at -80° C.
Reactions were terminated by addition of 3 mL ice-cold 0.9% NaCl followed by rapid vacuum filtration through filtermat B glass fiber filters and two 3-mL washes on the filter. Filters were pre-soaked at least 60 min in 0.1% w/v polyethyleneimine to reduce non-specific binding. […] The concentration of test compounds for 50% inhibition (IC50) was determined by iterative non-linear least-squares regression using the SigmaPlot program (Jandel Scientific Software, San Rafael, Calif.). The data reported are means±standard deviations with four determinations or are individual values for two determinations.

SMILES | IC50
N=C1NCCCN1Cc1ccc(Cl)nc1 [Compound 1, 1-(6-Chloro-3-pyridinyl)methyl-2-iminotetrahydropyrimidine] | 58 nM

same assay, conditions: 1 nM [3H]nicotine, 30 min, 22° C., Sf9 cell membranes; individual values for two determinations; read-out: Inhibition of [3H](-)-nicotine binding to α4β2 nAChR IC50 (individual values for two determinations)

SMILES | IC50
CC[N+](CC)(CC)Cc1ccc(Cl)nc1 [Compound 11, 1-(6-Chloro-3-pyridinyl)methyl-1,1,1-triethylammonium chloride] | 2400 nM and 3700 nM
C[N+](C)(C)Cc1ccc(Cl)nc1 [Compound 10, 1-(6-Chloro-3-pyridinyl)methyl-1,1,1-trimethylammonium chloride] | 16 nM and 20 nM
N=C1NCCCN1Cc1ccc(Cl)nc1 [Compound 1, 1-(6-Chloro-3-pyridinyl)methyl-2-iminotetrahydropyrimidine] | 63 nM

same assay, conditions: 1 nM [3H]nicotine, 30 min, 22° C., Sf9 cell membranes; means ± standard deviations, four determinations; read-out: Inhibition of [3H](-)-nicotine binding to α4β2 nAChR IC50

SMILES | IC50
N=C1SCCN1Cc1ccc(Cl)nc1 [Compound 3, 1-(^6 -Chloro-3-pyridinyl)methyl-2-iminothiazolidine] | 2.3 ± 0.3 nM
N=C1CCCN1Cc1ccc(Cl)nc1 [Compound 5, 1-(6-Chloro-3-pyridinyl)methyl-2-iminopyrrolidine] | 3.5 ± 0.7 nM
Clc1ccc(CN2CCCC2)cn1 [Compound 13, 1-(^6 -Chloro-3-pyridinyl)methylpyrrolidine] | 8.8 ± 2.8 nM
N=C1CCCCN1Cc1ccc(Cl)nc1 [Compound 6, 1-[(6-Chloro-3-pyridinyl)methyl]-2-iminopiperidine] | 11 ± 5 nM
Clc1ccc(CN2CCCCC2)cn1 [Compound 14, 1-(^6 -Chloro-3-pyridinyl)methylpiperidine] | 14 ± 3 nM
N=C1NCCCCN1Cc1ccc(Cl)nc1 [Compound 2, 1-[(6-Chloro-3-pyridinyl)methyl]-2-iminotetrahydrodiazepine] | 2.8 ± 1 nM
N=C1SCCCN1Cc1ccc(Cl)nc1 [Compound 4, 1-[(6-Chloro-3-pyridinyl)methyl]-2-iminotetrahydrothiazine] | 14 ± 4 nM
N=C1OCCN1Cc1ccc(Cl)nc1 [Compound 7, 1-[(6-Chloro-3-pyridinyl)methyl]-2-imino-1,3-oxazolidine] | 7.2 ± 2 nM
Clc1ccc(CN2CCC2)cn1 [Compound 12, 1-(6-Chloro-3-pyridinyl)methylazetidine] | 16 ± 14 nM
N=c1[nH]ccn1Cc1ccc(Cl)nc1 [Compound 8, 1-[(6-Chloro-3-pyridinyl)methyl]-2-iminoimidazole] | 23 ± 9 nM
N=c1sccn1Cc1ccc(Cl)nc1 [Compound 9, 1-(6-Chloro-3-pyridinyl)methyl-2-iminothiazole] | 0.91 ± 0.4 nM

test system: humans; assay: not given; conditions: taken orally; cited from earlier work

SMILES | fatal oral dose
CN1CCC[C@H]1c1cccnc1 [nicotine] | 250 to 350 mg
